In PubChem BioAssay (NCI):
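A five-concentration, 48-hour dose response in 96-well plates underlies each endpoint, interpolated linearly between surrounding concentrations. GI50 is the concentration that inhibits growth by half. TGI: total growth inhibition.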

Assays:
Experiment in all cases: DTP human tumour cell line panel, 48 h
SK-MEL-2 melanoma = system: SK-MEL-2 melanoma
HT29 colon = system: HT29 colon
OVCAR-3 ovarian = system: OVCAR-3 ovarian
U251 CNS = system: U251 CNS
SNB-19 CNS = system: SNB-19 CNS
SF-539 CNS = system: SF-539 CNS
OVCAR-8 ovarian = system: OVCAR-8 ovarian
IGROV1 ovarian = system: IGROV1 ovarian
OVCAR-5 ovarian = system: OVCAR-5 ovarian
HOP-62 NSCLC = system: HOP-62 NSCLC
NCI-H23 lung = system: NCI-H23 lung
SW-620 colon = system: SW-620 colon
786-0 renal = system: 786-0 renal
HCC-2998 colon = system: HCC-2998 colon
MOLT-4 leukemia = system: MOLT-4 leukemia
DU-145 prostate = system: DU-145 prostate
NCI-H522 lung = system: NCI-H522 lung
SK-MEL-28 melanoma = system: SK-MEL-28 melanoma
BT-549 breast = system: BT-549 breast
SF-295 CNS = system: SF-295 CNS
NCI-H226 lung = system: NCI-H226 lung
A498 renal = system: A498 renal
A549 NSCLC = system: A549 NSCLC
M14 melanoma = system: M14 melanoma
SR leukemia = system: SR leukemia
RXF 393 renal = system: RXF 393 renal
MALME-3M melanoma = system: MALME-3M melanoma
MCF7 breast = system: MCF7 breast
TK-10 renal = system: TK-10 renal
K-562 leukemia = system: K-562 leukemia
SK-OV-3 ovarian = system: SK-OV-3 ovarian
CAKI-1 renal = system: CAKI-1 renal
RPMI-8226 leukemia = system: RPMI-8226 leukemia
NCI/ADR-RES ovarian = system: NCI/ADR-RES ovarian
MDA-MB-231 breast = system: MDA-MB-231 breast
SNB-75 CNS = system: SNB-75 CNS
ACHN renal = system: ACHN renal
UO-31 renal = system: UO-31 renal
CCRF-CEM leukemia = system: CCRF-CEM leukemia
SK-MEL-5 melanoma = system: SK-MEL-5 melanoma
UACC-62 melanoma = system: UACC-62 melanoma
UACC-257 melanoma = system: UACC-257 melanoma
T-47D breast = system: T-47D breast
LOX IMVI melanoma = system: LOX IMVI melanoma
PC-3 prostate = system: PC-3 prostate
SF-268 CNS = system: SF-268 CNS
COLO 205 colon = system: COLO 205 colon
HOP-92 NSCLC = system: HOP-92 NSCLC
HCT-15 colon = system: HCT-15 colon
KM12 colon = system: KM12 colon
EKVX NSCLC = system: EKVX NSCLC
HCT-116 colon = system: HCT-116 colon
NCI-H460 lung = system: NCI-H460 lung
OVCAR-4 ovarian = system: OVCAR-4 ovarian
HS 578T breast = system: HS 578T breast
MDA-MB-435 = system: MDA-MB-435
SN12C renal = system: SN12C renal

Work on C=C1C(=O)O[C@H]2[C@H]1CC/C(COC(=O)N[C@H]1C[C@H](O[C@H]3C[C@](O)(C(=O)CO)Cc4c(O)c5c(c(O)c43)C(=O)c3c(OC)cccc3C5=O)O[C@@H](C)[C@H]1O)=C\CC[C@@]1(C)O[C@@H]21 yielded a GI50 (SK-MEL-2 melanoma) of 7.97 µM, a TGI (SK-MEL-2 melanoma) of 17 µM and a GI50 (HT29 colon) of 4.48 µM. It also gave a TGI (HT29 colon) of 22 µM, a GI50 (OVCAR-3 ovarian) of 2.2 µM and a TGI (OVCAR-3 ovarian) of 7.8 µM. For the same compound, the GI50 (U251 CNS) was 4.87 µM, the TGI (U251 CNS) was 11.2 µM and the GI50 (SNB-19 CNS) was 13.2 µM. It also gave a TGI (SNB-19 CNS) of over 50 µM, a GI50 (SF-539 CNS) of 2.37 µM and a TGI (SF-539 CNS) of 8.43 µM. The GI50 (OVCAR-8 ovarian) was 6.99 µM, the TGI (OVCAR-8 ovarian) was 18 µM and the GI50 (IGROV1 ovarian) was 5.77 µM. It also gave a TGI (IGROV1 ovarian) of 19 µM, a GI50 (OVCAR-5 ovarian) of 6.91 µM and a TGI (OVCAR-5 ovarian) of 18 µM. It also gave a GI50 (HOP-62 NSCLC) of 22.7 µM, a TGI (HOP-62 NSCLC) of over 50 µM and a GI50 (NCI-H23 lung) of 8.36 µM. For the same compound, the TGI (NCI-H23 lung) was 18.6 µM, the GI50 (SW-620 colon) was 1.15 µM and the TGI (SW-620 colon) was 3 µM. It also gave a GI50 (786-0 renal) of 5.7 µM, a TGI (786-0 renal) of 16.5 µM and a GI50 (HCC-2998 colon) of 11.8 µM. It also gave a TGI (HCC-2998 colon) of 28.7 µM, a GI50 (MOLT-4 leukemia) of 1.03 µM and a TGI (MOLT-4 leukemia) of 2.83 µM. For the same compound, the GI50 (DU-145 prostate) was 12.1 µM, the TGI (DU-145 prostate) was over 50 µM and the GI50 (NCI-H522 lung) was 0.772 µM. It also gave a TGI (NCI-H522 lung) of 1.68 µM, a GI50 (SK-MEL-28 melanoma) of 1.51 µM and a TGI (SK-MEL-28 melanoma) of 4.67 µM. The GI50 (BT-549 breast) was 2.4 µM, the TGI (BT-549 breast) was 9.24 µM and the GI50 (SF-295 CNS) was 45.3 µM. For the same compound, the TGI (SF-295 CNS) was over 50 µM, the GI50 (NCI-H226 lung) was 5.33 µM and the TGI (NCI-H226 lung) was 12.6 µM. The GI50 (A498 renal) was 6.85 µM, the TGI (A498 renal) was 29.4 µM and the GI50 (A549 NSCLC) was over 50 µM. It also gave a TGI (A549 NSCLC) of over 50 µM, a GI50 (M14 melanoma) of 8.36 µM and a TGI (M14 melanoma) of 22.5 µM. The GI50 (SR leukemia) was 1.02 µM, the TGI (SR leukemia) was 7.12 µM and the GI50 (RXF 393 renal) was 1.22 µM. For the same compound, the TGI (RXF 393 renal) was 3.85 µM, the GI50 (MALME-3M melanoma) was 0.879 µM and the TGI (MALME-3M melanoma) was 1.9 µM. For the same compound, the GI50 (MCF7 breast) was 1.86 µM, the TGI (MCF7 breast) was 9.86 µM and the GI50 (TK-10 renal) was 9 µM. For the same compound, the TGI (TK-10 renal) was over 50 µM, the GI50 (K-562 leukemia) was 1.58 µM and the TGI (K-562 leukemia) was 11.4 µM. It also gave a GI50 (SK-OV-3 ovarian) of over 50 µM, a TGI (SK-OV-3 ovarian) of over 50 µM and a GI50 (CAKI-1 renal) of 7.76 µM. It also gave a TGI (CAKI-1 renal) of over 50 µM, a GI50 (RPMI-8226 leukemia) of 1.33 µM and a TGI (RPMI-8226 leukemia) of 3.97 µM. The GI50 (NCI/ADR-RES ovarian) was over 50 µM, the TGI (NCI/ADR-RES ovarian) was over 50 µM and the GI50 (MDA-MB-231 breast) was 3.21 µM. For the same compound, the TGI (MDA-MB-231 breast) was 10.7 µM, the GI50 (SNB-75 CNS) was 6.97 µM and the TGI (SNB-75 CNS) was 24.1 µM. For the same compound, the GI50 (ACHN renal) was 41.3 µM, the TGI (ACHN renal) was over 50 µM and the GI50 (UO-31 renal) was over 50 µM. The TGI (UO-31 renal) was over 50 µM, the GI50 (CCRF-CEM leukemia) was 0.672 µM and the TGI (CCRF-CEM leukemia) was 2.28 µM. For the same compound, the GI50 (SK-MEL-5 melanoma) was 8.1 µM, the TGI (SK-MEL-5 melanoma) was 18.1 µM and the GI50 (UACC-62 melanoma) was 1.69 µM. For the same compound, the TGI (UACC-62 melanoma) was 7.02 µM, the GI50 (UACC-257 melanoma) was 7.17 µM and the TGI (UACC-257 melanoma) was 13.7 µM. The GI50 (T-47D breast) was 2.27 µM, the TGI (T-47D breast) was 10.4 µM and the GI50 (LOX IMVI melanoma) was 2.17 µM. It also gave a TGI (LOX IMVI melanoma) of 8.25 µM, a GI50 (PC-3 prostate) of 7.8 µM and a TGI (PC-3 prostate) of 30.8 µM. It also gave a GI50 (SF-268 CNS) of 6.72 µM, a TGI (SF-268 CNS) of 24.6 µM and a GI50 (COLO 205 colon) of 1.75 µM. The TGI (COLO 205 colon) was 6.98 µM, the GI50 (HOP-92 NSCLC) was 0.838 µM and the TGI (HOP-92 NSCLC) was 2.28 µM. For the same compound, the GI50 (HCT-15 colon) was over 50 µM, the TGI (HCT-15 colon) was over 50 µM and the GI50 (KM12 colon) was 13.2 µM. It also gave a TGI (KM12 colon) of 40.7 µM, a GI50 (EKVX NSCLC) of 23.3 µM and a TGI (EKVX NSCLC) of over 50 µM. For the same compound, the GI50 (HCT-116 colon) was 1.72 µM, the TGI (HCT-116 colon) was 5.58 µM and the GI50 (NCI-H460 lung) was 9.02 µM. The TGI (NCI-H460 lung) was over 50 µM, the GI50 (OVCAR-4 ovarian) was 3.47 µM and the TGI (OVCAR-4 ovarian) was 12.3 µM. It also gave a GI50 (HS 578T breast) of 9.93 µM, a TGI (HS 578T breast) of 34 µM and a GI50 (MDA-MB-435) of 6.31 µM. It also gave a TGI (MDA-MB-435) of 22.2 µM, a GI50 (SN12C renal) of 5.07 µM and a TGI (SN12C renal) of 14.4 µM.
